Data: patent publication US10300052B2, “Methods for increasing CFTR activity” (THE UAB RESEARCH FOUNDATION, priority 2012, dated 2019)

How the values were obtained:
porcine trachea CFTR+/+ = assay: μOCT imaging of airway epithelial function in porcine trachea, CFTR+/+ animals; conditions: ivacaftor 10 μM in bath, 37° C. (FIG. 7H)
Excerpt: FIGS. 7A-7H show the effects of CFTR activators on airway epithelial function in intact porcine trachea by μOCT. FIGS. 7A-7B show representative μOCT images for a CFTR−/− (FIG. 7A) and CFTR+/+ (FIG. 7B) animal. FIGS. 7C-7F, respectively, show ASL depth (FIG. 7C), PCL depth (FIG. 7D), CBF (FIG. 7E) and MCT (FIG. 7F) measurements derived from μOCT images from CFTR−/− and CFTR+/+ animals. FIGS. 7G and 7H show the response of epithelial functional parameters, namely ASL depth and MCT in CFTR−/− (FIG. 7G) and CFTR+/+(FIG. 7H) animals in response to sequential pharmacologic intervention by ivacaftor (10 μM), forskolin (100 nM) and acetylcholine (100 μM).
To further investigate the role of CFTR activators in modulating airway epithelial cell function, CFTR activators were studied in combination with porcine trachea. In this example, porcine trachea from animals having a mutated CFTR (CFTR (−/−) and from animals having a WT-CFTR (CFTR+/+) were evaluated for ASL depth, PCL depth, CBF and MCT. The results are shown in FIGS. 7A-7H.
FIGS. 7G and 7H show the response of epithelial functional parameters, namely ASL depth, CBF and MCT in CFTR−/− and CFTR+/+ animals in response to sequential pharmacologic intervention by ivacaftor (10 μM), forskolin (100 nM) and acetylcholine (100 μM); in this experiment, acetylcholine served as a positive control to induce glandular extrusion in CF tissue). In these experiments, agonists were added to the bath solution and all experiments were conducted under physiological conditions (37° C. and 100% humidity). […] In contrast to FIG. 7G, ASL depth, CBF and MCT were all increased in response to ivacaftor treatment in CFTR+/+ animals, consistent with the results described above for human tissue.
Normal piglet tracheas were obtained from Exemplar Genetics (Sioux Center, Iowa). Tissue were dissected from one-day-old piglets and shipped on wet ice in DMEM. A modified protocol based on airway tissue handling and preparation methods developed by Ballard et al. (Am J Physiol Lung Cell Mol Physiol 298: L270-276, 2010) was employed. […]

G551D-CFTR = G551D-CFTR (Homo sapiens, UniProt P13569, G551D); conditions: in vitro and in CF subjects harboring the G551D-CFTR defect; reported; cited from earlier work
G551D-CFTR, sequence (P13569 whole entry G551D): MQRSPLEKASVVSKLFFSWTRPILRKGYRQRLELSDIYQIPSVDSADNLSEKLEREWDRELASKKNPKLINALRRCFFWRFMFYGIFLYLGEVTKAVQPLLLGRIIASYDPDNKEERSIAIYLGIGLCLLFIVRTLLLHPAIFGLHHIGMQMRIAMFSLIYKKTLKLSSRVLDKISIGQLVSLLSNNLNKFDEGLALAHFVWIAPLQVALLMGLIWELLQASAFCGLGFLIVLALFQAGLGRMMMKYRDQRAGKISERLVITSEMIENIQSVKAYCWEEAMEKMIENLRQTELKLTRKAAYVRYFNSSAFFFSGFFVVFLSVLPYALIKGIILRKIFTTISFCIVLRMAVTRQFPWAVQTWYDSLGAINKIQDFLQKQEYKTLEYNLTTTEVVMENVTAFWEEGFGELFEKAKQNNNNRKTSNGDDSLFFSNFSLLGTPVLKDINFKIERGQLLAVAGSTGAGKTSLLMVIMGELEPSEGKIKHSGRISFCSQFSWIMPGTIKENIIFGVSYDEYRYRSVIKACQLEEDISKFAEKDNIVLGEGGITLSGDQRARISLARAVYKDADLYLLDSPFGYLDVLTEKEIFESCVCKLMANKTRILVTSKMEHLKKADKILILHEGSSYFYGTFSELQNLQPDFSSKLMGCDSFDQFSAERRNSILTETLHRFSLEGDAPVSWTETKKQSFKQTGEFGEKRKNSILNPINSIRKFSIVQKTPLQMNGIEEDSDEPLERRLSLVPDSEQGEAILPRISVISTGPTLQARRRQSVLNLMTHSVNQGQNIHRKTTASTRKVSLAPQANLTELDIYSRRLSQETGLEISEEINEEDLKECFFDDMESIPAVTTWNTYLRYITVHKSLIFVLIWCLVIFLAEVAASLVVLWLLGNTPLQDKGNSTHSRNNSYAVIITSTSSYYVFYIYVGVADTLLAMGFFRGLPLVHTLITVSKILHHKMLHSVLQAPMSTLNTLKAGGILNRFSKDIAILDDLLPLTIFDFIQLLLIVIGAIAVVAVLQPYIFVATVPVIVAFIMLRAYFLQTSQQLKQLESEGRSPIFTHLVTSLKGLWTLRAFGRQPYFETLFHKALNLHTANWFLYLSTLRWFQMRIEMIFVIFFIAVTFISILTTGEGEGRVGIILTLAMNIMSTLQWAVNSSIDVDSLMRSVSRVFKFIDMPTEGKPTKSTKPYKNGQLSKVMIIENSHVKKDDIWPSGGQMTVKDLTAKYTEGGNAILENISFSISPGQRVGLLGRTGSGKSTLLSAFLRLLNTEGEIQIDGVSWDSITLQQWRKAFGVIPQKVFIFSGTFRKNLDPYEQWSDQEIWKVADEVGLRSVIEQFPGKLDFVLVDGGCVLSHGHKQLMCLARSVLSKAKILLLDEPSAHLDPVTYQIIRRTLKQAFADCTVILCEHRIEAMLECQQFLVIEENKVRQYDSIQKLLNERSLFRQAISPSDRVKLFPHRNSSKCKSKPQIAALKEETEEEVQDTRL

CC(C)(C)c1cc(C(C)(C)C)c(NC(=O)c2c[nH]c3ccccc3c2=O)cc1O [ivacaftor]
ASL depth response (porcine trachea CFTR+/+): increased | CBF response (porcine trachea CFTR+/+): increased | MCT response (porcine trachea CFTR+/+): increased | cAMP mediated ion transport activity of CFTR encoding the gating mutation G551D-CFTR (G551D-CFTR): significantly augment
